Source: PubChem BioAssay AID652121 (NMMLSC, 2013)
The source made the active and inactive calls.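 The calls were made as follows: active = at least 15% of live cells showing both differentiation markers at top dose, and half-maximal dose below 10 µM; inactive = the rest.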

Key:
[1] = GFP+/MAC1+ double-positive induction in arrested progenitors – HOXA9ER cells, flow cytometry, Powder Set01 subset01, dose response (AID 652121); settings: ER-HoxA9 myeloid progenitors, GFP+/MAC1+ differentiation flow cytometry; at 10 µM (top of the series)
[2] = tested on: ER-HoxA9 myeloid progenitors, GFP+/MAC1+ differentiation flow cytometry; assay: as above

| EC50 [2] [µM] | SMILES | percent double positive differentiation [1] |
| --- | --- | --- |
|  | O=C(CCNC(=O)c1ccc(Cl)cc1)NC1CCCc2ccccc21 (stereo not drawn) | 44% (inactive) |
|  | O=C(O)c1cccnc1Nc1ccc(Cl)cc1 | 28.8% (inactive) |
| 1.83 | Cc1ccc(Nc2nc(=O)c3cccnc3s2)c(Br)c1 |  |
